# Results published in US20230391748A1, “BICYCLIC INHIBITORS OF IRAK” (priority 2022, published 2023).
# Legend:
# IRAK4 = IRAK4 (Homo sapiens (Human), UniProt Q9NWZ3); test: IRAK4 ADP-Glo Assay; type: biochemical; conditions: MBP substrate
# How it was run: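 Human IRAK4 kinase reaction with MBP substrate plus ATP in Tris-HCl/MgCl2/BSA/DTT buffer, pH 7.4, run 60 min at room temperature or 30 min at 30 °C. ADP formed was measured by ADP-Glo luminescence after ATP depletion (40 min) and detection reagent (30 min).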
# IL23p19 in THP-1 Cells = test: LPS Induced IL23p19 in THP-1 Cells (with IFNγ Primed) Assay; type: cell-based; conditions: Homo sapiens, THP-1, 18 h, read-out: IL23 (THP, LPS) (IC50, μM)
# How it was run: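 THP-1 cells (50K/well) primed with IFNγ (50 ng/mL) about 18 h, then given compound and stimulated with LPS for 18 h at 37 °C. Secreted IL-23p19 measured by sandwich ELISA with chemiluminescent read-out, giving EC50. Cell Titer Glo used on the remaining cells for toxicity.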
# TNF-α in human PBMCs = test: R848-induced TNF-α in human PBMCs Assay; type: cell-based; conditions: Homo sapiens, PBMC, 4 h, read-out: TNFα (PBMC, R848) (IC50, μM)
# How it was run: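 Human PBMCs at 200K/well were pretreated with compound, then R848-stimulated for 4 h at 37 °C, 5% CO2. Supernatant TNF-α quantified by chemiluminescent ELISA; EC50 from curve fitting.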
# [1] = system: TNF-α in Human Primary Monocyte-Derived Dendritic Cells; test: Gardiquimod-Induced TNF-α in Human Primary Monocyte-Derived Dendritic Cells; type: cell-based; conditions: Dendritic cell, IFNγ-primed monocyte-derived dendritic cells, 4 μg/ml Gardiquimod, 6 hours, TNF-α ELISA, read-out: TNFα (DC, GARD) (IC50)
# How it was run: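 Monocytes differentiated 7 days with GM-CSF and IL-4, then primed 24 h with 50 ng/ml IFN-γ. Compound added 1 h before 6 h stimulation with 4 μg/ml Gardiquimod, 0.5% DMSO final. Supernatant TNF-α measured by chemiluminescent ELISA; EC50 from curve fitting.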
# Sequence of IRAK4 (Q9NWZ3 whole entry): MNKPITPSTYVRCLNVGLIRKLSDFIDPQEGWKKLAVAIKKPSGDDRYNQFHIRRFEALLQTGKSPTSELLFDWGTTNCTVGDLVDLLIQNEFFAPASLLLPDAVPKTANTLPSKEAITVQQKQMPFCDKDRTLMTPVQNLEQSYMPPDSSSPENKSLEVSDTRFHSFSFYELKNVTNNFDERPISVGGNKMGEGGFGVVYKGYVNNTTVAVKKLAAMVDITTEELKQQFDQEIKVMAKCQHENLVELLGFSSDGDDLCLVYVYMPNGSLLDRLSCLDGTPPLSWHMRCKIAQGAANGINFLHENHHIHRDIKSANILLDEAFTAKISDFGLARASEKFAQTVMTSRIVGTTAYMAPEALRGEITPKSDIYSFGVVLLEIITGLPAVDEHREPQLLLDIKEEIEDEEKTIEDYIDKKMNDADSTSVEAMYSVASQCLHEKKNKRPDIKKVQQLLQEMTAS
SMILES,IC50 (IRAK4),IC50 (IL23p19 in THP-1 Cells),IC50 (TNF-α in human PBMCs),IC50 [1]
"CC(C)Oc1cc2c(O[C@@H]3CCCN(C(=O)CC#N)C3)ncc(C#CC3(O)CCCC3)c2cc1C(N)=O [Compound I-88, (R)-1-((1-(2-cyanoacetyl)piperidin-3-yl)oxy)-4-((1-hydroxycyclopentyl)ethynyl)-7-isopropoxyisoquinoline-6-carboxamide]",29.7 nM,2.07 µM,0.903 µM,696 nM
"CC(C)Oc1cc2c(O[C@@H]3CCCN(C(=O)CC#N)C3)ncc(C#CC3CCOCC3)c2cc1C(N)=O [Compound I-89, (R)-1-((1-(2-cyanoacetyl)piperidin-3-yl)oxy)-7-isopropoxy-4-((tetrahydro-2H-pyran-4-yl)ethynyl)isoquinoline-6-carboxamide]",15.2 nM,1.71 µM,0.556 µM,530 nM
"CC(C)Oc1cc2c(O[C@@H]3CCCN(C(=O)CC#N)C3)ncc(C#CCC3CCOCC3)c2cc1C(N)=O [Compound I-90, (R)-1-((1-(2-cyanoacetyl)piperidin-3-yl)oxy)-7-isopropoxy-4-(3-(tetrahydro-2H-pyran-4-yl)prop-1-yn-1-yl)isoquinoline-6-carboxamide]",20.5 nM,1.42 µM,0.433 µM,616 nM
"CC(C)Oc1cc2c(O[C@@H]3CCCN(C(=O)CC#N)C3)ncc(C#CC3(O)CCOCC3)c2cc1C(N)=O [Compound I-91, (R)-1-((1-(2-cyanoacetyl)piperidin-3-yl)oxy)-4-((4-hydroxytetrahydro-2H-pyran-4-yl)ethynyl)-7-isopropoxyisoquinoline-6-carboxamide]",20.7 nM,10.2 µM,3.76 µM,15400 nM
"CC(C)Oc1cc2c(O[C@@H]3CCCN(C(=O)CC#N)C3)ncc(C#CC3(O)CCN(C(=O)OC(C)(C)C)CC3)c2cc1C(N)=O [Compound I-92, tert-butyl (R)-4-((6-carbamoyl-1-((1-(2-cyanoacetyl)piperidin-3-yl)oxy)-7-isopropoxyisoquinolin-4-yl)ethynyl)-4-hydroxypiperidine-1-carboxylate]",142 nM,4.92 µM,3.7 µM,13900 nM
"CC(C)Oc1cc2c(O[C@@H]3CCCN(C(=O)CC#N)C3)ncc(C#CC3CCN(C(=O)OC(C)(C)C)CC3)c2cc1C(N)=O [Compound I-95, tert-butyl (R)-4-((6-carbamoyl-1-((1-(2-cyanoacetyl)piperidin-3-yl)oxy)-7-isopropoxyisoquinolin-4-yl)ethynyl)piperidine-1-carboxylate]",68.5 nM,1.56 µM,2.1 µM,842 nM
"CC(C)Oc1cc2c(O[C@@H]3CCCN(C(=O)CC#N)C3)ncc(C#CC3CCNCC3)c2cc1C(N)=O [Compound I-96, (R)-1-((1-(2-cyanoacetyl)piperidin-3-yl)oxy)-7-isopropoxy-4-(piperidin-4-ylethynyl)isoquinoline-6-carboxamide]",8 nM,7.84 µM,1.71 µM,1170 nM
"CC(C)Oc1cc2c(O[C@@H]3CCCN(C(=O)CC#N)C3)ncc(C#CC3CCN(C)CC3)c2cc1C(N)=O [Compound I-97, (R)-1-((1-(2-cyanoacetyl)piperidin-3-yl)oxy)-7-isopropoxy-4-((1-methylpiperidin-4-yl)ethynyl)isoquinoline-6-carboxamide]",15.4 nM,1.98 µM,0.752 µM,250 nM
"CCO[C@H]1CC[C@H](C#Cc2cnc(O[C@@H]3CCCN(C(=O)CC#N)C3)c3cc(OC(C)C)c(C(N)=O)cc23)CC1 [Compound I-98, 1-(((R)-1-(2-cyanoacetyl)piperidin-3-yl)oxy)-4-(((1r,4R)-4-ethoxycyclohexyl)ethynyl)-7-isopropoxyisoquinoline-6-carboxamide]",25.5 nM,0.484 µM,0.22 µM,136 nM
"CCO[C@H]1CC[C@@H](C#Cc2cnc(O[C@@H]3CCCN(C(=O)CC#N)C3)c3cc(OC(C)C)c(C(N)=O)cc23)CC1 [Compound I-99, 1-(((R)-1-(2-cyanoacetyl)piperidin-3-yl)oxy)-4-((cis-4-ethoxycyclohexyl)ethynyl)-7-isopropoxyisoquinoline-6-carboxamide]",23.1 nM,0.483 µM,0.555 µM,366 nM
"CC(C)Oc1cc2c(O[C@@H]3CCCN(C(=O)CC#N)C3)ncc(C#C[C@H]3CC[C@](C)(O)CC3)c2cc1C(N)=O [Compound I-100, 1-(((R)-1-(2-cyanoacetyl)piperidin-3-yl)oxy)-4-(((1r,4R)-4-hydroxy-4-methylcyclohexyl)ethynyl)-7-isopropoxyisoquinoline-6-carboxamide]",34.8 nM,0.96 µM,3.3 µM,1410 nM
"CC(C)Oc1cc2c(O[C@@H]3CCCN(C(=O)CC#N)C3)ncc(C#C[C@H]3CC[C@@](C)(O)CC3)c2cc1C(N)=O [Compound I-101, 1-(((R)-1-(2-cyanoacetyl)piperidin-3-yl)oxy)-4-(((1s,4S)-4-hydroxy-4-methylcyclohexyl)ethynyl)-7-isopropoxyisoquinoline-6-carboxamide]",13.7 nM,0.27 µM,3.33 µM,750 nM
"CC(C)Oc1cc2c(O[C@@H]3CCCN(C(=O)CC#N)C3)ncc(C#CC3CN(C(=O)OC(C)(C)C)C3)c2cc1C(N)=O [Compound I-102, tert-butyl (R)-3-((6-carbamoyl-1-((1-(2-cyanoacetyl)piperidin-3-yl)oxy)-7-isopropoxyisoquinolin-4-yl)ethynyl)azetidine-1-carboxylate]",35.3 nM,0.16 µM,0.19 µM,63 nM
"CC(C)Oc1cc2c(O[C@@H]3CCCN(C(=O)CC#N)C3)ncc(C#CC3CNC3)c2cc1C(N)=O [Compound I-103, (R)-4-(azetidin-3-ylethynyl)-1-((1-(2-cyanoacetyl)piperidin-3-yl)oxy)-7-isopropoxyisoquinoline-6-carboxamide]",5.2 nM,9.35 µM,0.441 µM,828 nM
"CC(C)Oc1cc2c(O[C@@H]3CCCN(C(=O)CC#N)C3)ncc(C#CC3CN(C)C3)c2cc1C(N)=O [Compound I-104, (R)-1-((1-(2-cyanoacetyl)piperidin-3-yl)oxy)-7-isopropoxy-4-((1-methylazetidin-3-yl)ethynyl)isoquinoline-6-carboxamide]",7.1 nM,1.76 µM,0.237 µM,159 nM
"COC1(OC)CC(C#Cc2cnc(O[C@@H]3CCCN(C(=O)CC#N)C3)c3cc(OC(C)C)c(C(N)=O)cc23)C1 [Compound I-105, (R)-1-((1-(2-cyanoacetyl)piperidin-3-yl)oxy)-4-((3,3-dimethoxycyclobutyl)ethynyl)-7-isopropoxyisoquinoline-6-carboxamide]",10 nM,0.603 µM,0.275 µM,286 nM
"CC(C)Oc1cc2c(O[C@@H]3CCCN(C(=O)CC#N)C3)ncc(C#C[C@H]3C[C@@H](N(C)C)C3)c2cc1C(N)=O [Compound I-106, 1-(((R)-1-(2-cyanoacetyl)piperidin-3-yl)oxy)-4-((cis-3-(dimethylamino)cyclobutyl)ethynyl)-7-isopropoxyisoquinoline-6-carboxamide]",3.2 nM,0.436 µM,0.363 µM,53.5 nM
"CC(C)Oc1cc2c(O[C@@H]3CCCNC3)ncc(-c3cnn(C4CC4)c3)c2cc1C(N)=O [Compound I-108, (R)-4-(1-cyclopropyl-1H-pyrazol-4-yl)-7-isopropoxy-1-(piperidin-3-yloxy)isoquinoline-6-carboxamide]",142 nM,10 µM,5.5 µM,1370 nM
"CC(C)Oc1cc2c(O[C@@H]3CCCNC3)ncc(-c3cnn(C4CCC4)c3)c2cc1C(N)=O [Compound I-109, (R)-4-(1-cyclobutyl-1H-pyrazol-4-yl)-7-isopropoxy-1-(piperidin-3-yloxy)isoquinoline-6-carboxamide]",171 nM,34.9 µM,2.55 µM,1440 nM
"CC(C)Oc1cc2c(O[C@@H]3CCCNC3)ncc(-c3cnn(C4CCCC4)c3)c2cc1C(N)=O [Compound I-110, (R)-4-(1-cyclopentyl-1H-pyrazol-4-yl)-7-isopropoxy-1-(piperidin-3-yloxy)isoquinoline-6-carboxamide]",123 nM,24.7 µM,2.44 µM,1790 nM
"CC(C)Oc1cc2c(O[C@@H]3CCCNC3)ncc(-c3cnn(C4CCOCC4)c3)c2cc1C(N)=O [Compound I-111, (R)-7-isopropoxy-1-(piperidin-3-yloxy)-4-(1-(tetrahydro-2H-pyran-4-yl)-1H-pyrazol-4-yl)isoquinoline-6-carboxamide]",1440 nM,15.5 µM,3.46 µM,2270 nM
